Publication PMC6173696, “Structural properties of a haemophore facilitate targeted elimination of the pathogen Porphyromonas gingivalis” (Nature Communications, 2018)
Like-named read-outs stand apart in the source and are kept apart here.

Key:
HusA = target: T1, HusA (Porphyromonas gingivalis, UniProt Q7MSY3); experiment: Tryptophan fluorescence quenching assay, HusA wild-type; type: binding
T1 sequence (Q7MSY3 24-218): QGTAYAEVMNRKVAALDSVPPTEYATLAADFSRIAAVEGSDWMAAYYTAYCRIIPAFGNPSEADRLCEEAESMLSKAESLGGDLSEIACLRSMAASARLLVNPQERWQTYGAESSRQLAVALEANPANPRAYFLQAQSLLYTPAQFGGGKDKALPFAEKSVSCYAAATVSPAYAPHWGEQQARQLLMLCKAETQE
Procedure: The quenching of intrinsic tryptophan fluorescence of HusA upon porphyrin additions was measured using a Carey Eclipse Fluorescence Spectrophotometer (Agilent) set to a photo multiplier effect (PME) of 850. A 5-mm path length quartz cuvette was used and all spectra were acquired at room temperature. Excitation was set to 295 nm and emission was measured from 300 nm to 500 nm using excitation/emission slit widths of 5 nm. Binding assays were performed at a protein concentration of 1 μM HusA in standard buffer at a working volume of 0.5 mL. […] The fluorescence quenching of HusA by PPIX was investigated in a similar manner with the following difference: the fluorescence intensities of ten 1 μM HusA samples were measured each with increasing amounts of PPIX after a 2-h incubation period to allow equilibrium to be reached. See Supplementary Methods for correction for inner filter effect and curve fitting. […]
Correction of inner filter effect and curve fitting in tryptophan fluorescence quenching assays The concentration of NATA was chosen such that the raw fluorescence intensity was similar to the […] concentrations of HusA and mutants used. The same molarity titrants of porphyrin were titrated into NATA as were added into HusA in the control reactions. Fluorescence intensity was scaled with respect to the starting florescence and corrected for the inner filter effect. Fluorescence at 335 nm was used to fit binding curves.
The correction method is based on Fonin AV., et al.26, noting that a Cary Eclipse spectrofluorimeter […]
performed to measure the contribution to the decrease in fluorescence due to the inner filter effect and this effect was scaled to the starting fluorescence values as fractional changes. The measured fluorescence at each titration point for each of the porphyrin titrations into protein was then adjusted for this contribution. Fluorescence at 335 nm was used to fit binding curves. Association constant, Ka, was fitted using the following equation in Origin, assuming a single binding site. A dissociation constant, Kd, was calculated by taking the inverse of the Ka.
Xobs = XA×f A+XAB×f AB (1) where XA is the corrected fluorescence, fA=1-fAB, fAB=x/(Bt), x=(-b-sqrt(b2-4×c))/2, b=-(1/Ka+At+Bt), c=Bt×At, Bt=total concentration of protein, At=total concentration of ligand.
To aid comparison of the different titrations, the corrected fluorescence was scaled to the starting fluorescence in the absence of porphyrins (i.e. all fluorescence curves have a starting value of one

[1] = tested on: P. gingivalis wild-type W83; experiment: P8 growth inhibition under iron restriction (100 µM dipyridyl); type: cell-based, Porphyromonas gingivalis; conditions: P8 at 1 µM (below the MIC)
Description: Fig. 5 A prototype DPIX-conjugated antibiotic binds HusA and inhibits P. gingivalis. a The chemical structure of the deuteroporphyrin-lysine-metronidazole adduct, P8. b NMR signal intensity changes (black) and ^1H^N CSPs (red/green) for HusA upon addition of P8 (measured from ^15N-HSQC spectra shown in Supplementary Figure 21). c In silico docking of P8 to the energy minimized structure of HusA (conformer set 1), with residues experiencing NMR signal loss (orange) or CSPs (red/green) mapped to the structure (colouring as described in Fig. 2d). d Scaled and corrected fluorescence at 335 nm during titration of 1 μM of HusA with increasing concentrations of P8, haemin or DPIX. e Comparison of P8 inhibitory effect towards P. gingivalis wild-type W83 and husA mutants using checkerboard analysis. Serial dilutions of antibiotics (horizontal axis) were applied to a 96-well plate with different P. gingivalis strains (vertical axis). Serial dilutions of DPIX were also supplemented into wild-type W83 group to evaluate the competitive effect against P8. Absorption at OD600 of each well was recorded after 24 h of incubation. The OD600 of each strain grown in the absence of antibiotics was defined as 100% growth, which was applied to normalise the reading collected from other wells. […] Recovered bacteria were determined by CFU count. […]

[2] = tested on: P. gingivalis wild type W83; experiment: Time-kill experiment with high and low densities of bacteria, iron limited; type: cell-based, Porphyromonas gingivalis
Procedure: Supplementary Figure 22. Time-kill experiment with high and low densities of P. gingivalis wild type W83 in the presence of P8 antibiotic under iron limited condition. (A) Representative planktonic growth curves show control P. gingivalis culture without P8 antibiotic (filled dark blue circle), P8 at 0.5 µM (light blue circle) and 2.5 µM (dash-filled light blue circle) added at the commencement of growth. (B) Representative planktonic growth curves shown control P. gingivalis culture without P8 antibiotic (filled dark blue circle), P8 at 0.5 µM (dash-filled light blue circle) and 2.5 µM (filled light blue circle) added to the exponentially growing cultures.
(1 picture or pasted object on this page, not shown here) […]
1) Fig. 1A still needs confirmation with the inclusion of two additional panels.
(a) Effect of 0.5 µM P8 added to the culture prior to the commencement of growth. (b) Effect of adding 0.5 µM P8 to actively growing cultures of P. gingivalis W83
Response: The growth curve studies, including addition of 0.5µM P8 prior to the commencement of […]
the commencement of growth (low bacteria density).
2.5 µM P8 under the same condition. When added to the actively growing culture (high bacteria density) of P. gingivalis W83, both 0.5 µM and 2.5 µM P8 retard growth with the 2.5 µM P8 treatment achieving a relative lower density at stationary phase. The MIC of P8 is correlated to the initial bacteria densities in the inoculum. Udekwu et al. have reported that higher concentration of antibiotics is required to achieve the MIC when treating higher densities of bacteria albeit with variation according to class of drug […]
As P8 is introduced in the later section of the main text, we have presented the results as Supplementary […]
is not uniform in panel “i”.
3) HSQC spectra for the interaction of HusA with P8 should be provided (analogous to Supplementary
Fig. 18A, where the authors have done a nice job of showing the data down to noise level). Specifically, HSQC superpositions of DPIX and P8 would make for direct comparison. Similarly, the authors would also need to show an HSQC comparison of HusA alone and bound to P8. Indeed, Supplementary Fig. 21 is helpful in analyzing the exchange regimes of a couple of residues, but it doesn't give a global picture of […]

| SMILES | Kd (HusA; estimate by comparison to other porphyrins, not fitted, UV-visible absorption and fluorescence data, read-out: affinity for HusA) [µM] | susceptibility of W83 under iron restriction [1] | effect on growth ([2]; 0.5 µM P8 added prior to the commencement of growth (low bacteria density), dipyridyl) | effect on growth ([2]; 0.5 µM P8 added to the actively growing culture (high bacteria density)) | effect on growth ([2]; 2.5 µM P8 added prior to the commencement of growth, dipyridyl) | effect on growth ([2]; 2.5 µM P8 added to the actively growing culture, relative lower density at stationary phase) | Kd (HusA; HusA wild-type 1 µM, fit to 1:1 binding model) [µM] |
| --- | --- | --- | --- | --- | --- | --- | --- |
| CC1=Cc2cc3[nH]c(cc4nc(cc5[nH]c(cc1n2)cc5C)C(C)=C4CCC(=O)N[C@@H](CCCCNC(=O)OC(C)(C)C)C(=O)NCCn1c([N+](=O)[O-])cnc1C)c(CCC(=O)O)c3C [P8] | 1 to 10 | susceptible | retards the growth | retard growth | fails to growth | retard growth | – |
| C=CC1=C(C)c2cc3[nH]c(cc4nc(cc5[nH]c(cc1n2)c(C)c5CCC(=O)O)C(CCC(=O)O)=C4C)c(C)c3C=C.[Fe+3] [haemin] | – | – | – | – | – | – | 7.3 ± 1.1 |
